Laboratory results as given in patent US20230180804A1, “FLAVOR COMPOSITION, AND FOOD AND BEVERAGE” (TAKASAGO INTERNATIONAL CORPORATION, priority 2020, published 2023).

Assays:
[1] = Sensory evaluation of p-cresol odor masking in p-cresol-containing citrus-flavored beverage; conditions: for p-Cresol Odor Intensity: beverage with 50 ppb p-cresol, average score of 7 panelists, scale 0-4
Method: To 2 g of lemon flavor obtained by making lemon oil into an essence, purified water was added to adjust the total amount to 1000 ml. To this citrus-flavored beverage, p-cresol adjusted to a concentration of 1% by mass with 95% ethanol was added to 50 ppb in the citrus-flavored beverage. To this p-cresol-containing citrus-flavored beverage, 1-oxacycloheptadecan-7-en-2-one was added at the concentrations presented in Table 1 to confirm the p-cresol odor intensity (masking effect) and the influence on the citrus flavor of each sample.
For the test, seven skilled panelists were selected to perform sensory evaluation. The p-cresol odor intensity of the p-cresol-containing citrus-flavored beverage without added l-oxacycloheptadecan-7-en-2-one was determined as “Rating: 4,” and the p-cresol odor intensity of the p-cresol-free citrus-flavored beverage was determined as “Rating: 0,” and the p-cresol odor intensity (masking effect) of each sample was relatively evaluated according to the following evaluation criteria.
In addition, the influence of the citrus-flavored beverage on the citrus flavor was evaluated absolutely according to the following evaluation criteria for the presence or absence of off- flavor other than p-cresol odor and citrus flavor (Off-Flavor Intensity).
The results are as in Table 1, presenting the average score of the evaluation results for each panelist.

[2] = target: T1, olfactory receptor OR9Q2 (Homo sapiens, UniProt Q8NGE9); experiment: OR9Q2 response inhibitory effect for p-cresol, luciferase reporter gene assay; assay type: cell-based; conditions: p-cresol 100 µM mixed with various concentrations of compound; cells expressing OR9Q2; ratio of Fold Increase value (FIGS. 1 to 11)
T1 construct: 20 N-terminal amino acid residues of bovine rhodopsin (Rho tag); expressed in transfected cells; host or cells: HEK293T
T1 sequence (Q8NGE9 1-314): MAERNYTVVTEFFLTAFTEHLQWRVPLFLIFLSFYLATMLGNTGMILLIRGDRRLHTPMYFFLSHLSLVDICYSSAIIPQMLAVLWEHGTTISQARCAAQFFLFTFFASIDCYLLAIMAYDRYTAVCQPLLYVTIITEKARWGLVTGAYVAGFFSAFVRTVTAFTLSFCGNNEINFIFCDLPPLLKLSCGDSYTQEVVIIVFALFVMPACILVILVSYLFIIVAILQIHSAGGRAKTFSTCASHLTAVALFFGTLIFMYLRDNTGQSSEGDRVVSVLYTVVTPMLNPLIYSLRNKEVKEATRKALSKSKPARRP
Method: The human olfactory receptor gene was obtained by cloning from Human Genomic DNA: Female (Promega) by PCR method based on the sequence information registered in GenBank. The 20 N-terminal amino acid residues of bovine rhodopsin were incorporated into the pME18S vector, and the obtained human olfactory receptor gene was incorporated downstream thereof to obtain a human olfactory receptor gene expression vector.
In 10 µL of Opti-MEM I (gibco), 0.05 µg of human olfactory receptor gene expression vector, 0.01 µg of RTP1S vector, 0.01 µg firefly luciferase vector pGL4.29 (Promega) containing cAMP response element promoter, and 0.005 µg of Renilla luciferase vector pGL4.74 (Promega) containing thymidine kinase promoter were dissolved to prepare a gene solution (for one well). HEK293T cells were seeded at 100 µL each in a 96-well plate (Biocoat, Coming) at the number of cells reaching confluence after 24 hours, and a gene solution was added to each well by the lipofection method according to the usage of Lipofectamine 3000 to introduce genes into the cells, and the cells were cultured at 37° C. in a 5% carbon dioxide atmosphere for 24 hours.
After removing the culture medium, the resultant was prepared with CD293 (gibco) medium ([…] added) so as to have a concentration for measuring the aroma substance to be tested, 50 µL of which was added each and stimulated for 3 hours, and then luciferase activity was measured according to the method of using the Dual-Luciferase Reporter Assay System (Promega). The response intensity of the olfactory receptor polypeptide was expressed as a Fold Increase value obtained by dividing the luciferase activity produced by stimulating the aroma substance by the luciferase activity produced in the test system containing no aroma substance.
p-Cresol at 100 µM was mixed with various concentrations of 1-oxacycloheptadecan-7-en-2-one, 1-oxacycloheptadecan-8-en-2-one, isoambrettolide, pentalide, muscone, civetone, 8-2-decenolactone, cinnamic aldehyde, […], sclareolide, and ethyl maltol, and receptor responses were measured in cells expressing OR9Q2. The ratio of the Fold Increase value in the test in which each compound was mixed was calculated, where the Fold Increase value in the test in none of these compounds was mixed was set to 100. FIGS. 1 to 11 present the results.

[3] = Sensory evaluation of p-cresol odor masking in p-cresol-containing citrus-flavored confectionery (tablet); conditions: for p-Cresol Odor Intensity: tablet with 200 ppb p-cresol, average score of 6 panelists, scale 0-4
Method: Lemon cold-pressed oil was added to the tablet having the composition presented in Table A at a concentration of 1 % by mass, and medium chain fatty acid triglycerides (MCT) was used to adjust p-cresol to a concentration of 0.1%, which was further added so as to reach 200 ppb in the citrus flavored confectionery. To this p-cresol-containing citrus-flavored confectionery, 1-oxacycloheptadecan-7-en-2-one was added at the concentrations presented in Table 12, and then tableting was performed to confirm the p-cresol odor intensity (masking effect) and the influence on the citrus flavor of each sample.
Six skilled panelists were selected to perform the same sensory evaluation as in Example 1. The results are as in Table 12, presenting the average score of the evaluation results for each panelist.

[4] = citrus-flavored beverage with 50 ppb p-cresol
[5] = citrus-flavored confectionery (tablet) with 200 ppb p-cresol

## O=C1CCCCCCC/C=C\CCCCCCO1 [Isoambrettolide, isoambrettolide]
[1]; 0.01 ppt added
  p-Cresol Odor Intensity: 3.7 points
[1]; 0.1 ppt added
  p-Cresol Odor Intensity: 2.7 points
[1]; 1 ppb added
  p-Cresol Odor Intensity: 1.3 points
[1]; 1 ppt added
  p-Cresol Odor Intensity: 2.4 points
[1]; 10 ppb added
  p-Cresol Odor Intensity: 1.3 points
[1]; 10 ppt added
  p-Cresol Odor Intensity: 2.1 points
[1]; 100 ppb added
  p-Cresol Odor Intensity: 0.9 points
[1]; 100 ppt added
  p-Cresol Odor Intensity: 1.6 points
[1]; [4]
  concentration at which the compound masks the p-cresol odor and does not affect the citrus flavor, lower limit: ≥ 0.1 ppt
  concentration at which the compound masks the p-cresol odor and does not affect the citrus flavor, upper limit: ≤ 1 ppb
[2]
  effect of suppressing the response of OR9Q2 to p-cresol: suppressing the response of OR9Q2 to p-cresol in a concentration-dependent manner
[3]; 4 ppb added
  p-Cresol Odor Intensity: 2.5 points
[3]; 40 ppb added
  p-Cresol Odor Intensity: 1.8 points
[3]; 40 ppt added
  p-Cresol Odor Intensity: 3.0 points
[3]; 400 ppb added
  p-Cresol Odor Intensity: 1.5 points
[3]; 400 ppt added
  p-Cresol Odor Intensity: 2.7 points
[3]; [5]
  concentration at which the compound masks the p-cresol odor and does not affect the citrus flavor, lower limit: ≥ 400 ppt
  concentration at which the compound masks the p-cresol odor and does not affect the citrus flavor, upper limit: ≤ 400 ppb
